Target: HER2 (Homo sapiens, UniProt P04626)
Assay: DiscoverX scanELECT competition binding at […]

HER2, sequence (P04626 720-987 limits assumed): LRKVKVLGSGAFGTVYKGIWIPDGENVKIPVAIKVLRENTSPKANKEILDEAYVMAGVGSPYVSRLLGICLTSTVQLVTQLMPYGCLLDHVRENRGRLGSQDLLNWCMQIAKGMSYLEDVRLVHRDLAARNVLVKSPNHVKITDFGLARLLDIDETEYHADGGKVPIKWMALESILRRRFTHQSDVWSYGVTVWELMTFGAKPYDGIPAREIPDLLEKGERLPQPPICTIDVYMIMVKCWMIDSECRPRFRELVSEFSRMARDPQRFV

Which “% control at 1 μM” value does the source give for CS(=O)(=O)CCNCc1ccc(-c2ccc3ncnc(Nc4ccc(OCc5cccc(F)c5)c(Cl)c4)c3c2)o1 [lapatinib] here?
Its value is 0.

Source: article PMC6110523 (Biochemistry, 2018)
